From patent US10472607B2, “Culture medium and method for inducing differentiation of pluripotent stem cells into neuroepithelial cells” (National Chung Hsing University, priority 2011, dated 2019)

System: TW1 hESCs
Assay: Comparison of additive groups: morphology and Oct4/Nestin immunofluorescence
Assay type: cell-based, human
Settings: compared to group 3 (BIO + SB431542)
Text: The TW1 hESCs were divided into four groups according to the additives at culture day 3. The detail of the above steps refers to the examples 1 to 3.
Referring to the methods in examples 5 and 6, the protein expressions of Oct4 and Nestin in the each groups and the results were examined and shown in FIG. 9.

fibroblast growth factor-2 [FGF2]
compaction and neural rosettes formation: further enhanced
